The molecules below were run against 5'-AMP-activated protein kinase catalytic subunit alpha-2 (Homo sapiens) (UniProt P54646).

Row | ΔTm | Structure (SMILES)
1 | 1 °C | O=C1Nc2ccc(I)cc2/C1=C\c1cc(Br)c(O)c(Br)c1
2 | 0.7 °C | O=C1Cc2c([nH]c3ccc([N+](=O)[O-])cc23)-c2ccccc2N1
3 | 1.4 °C | Cn1cc(C2=C(c3cn(CCCN)c4ccccc34)C(=O)NC2=O)c2ccccc21

These molecules were tested against Calcium/calmodulin-dependent protein kinase type II subunit alpha (Homo sapiens) (UniProt Q9UQM7).
Calcium/calmodulin-dependent protein kinase type II subunit alpha (Homo sapiens), sequence (Q9UQM7 whole entry): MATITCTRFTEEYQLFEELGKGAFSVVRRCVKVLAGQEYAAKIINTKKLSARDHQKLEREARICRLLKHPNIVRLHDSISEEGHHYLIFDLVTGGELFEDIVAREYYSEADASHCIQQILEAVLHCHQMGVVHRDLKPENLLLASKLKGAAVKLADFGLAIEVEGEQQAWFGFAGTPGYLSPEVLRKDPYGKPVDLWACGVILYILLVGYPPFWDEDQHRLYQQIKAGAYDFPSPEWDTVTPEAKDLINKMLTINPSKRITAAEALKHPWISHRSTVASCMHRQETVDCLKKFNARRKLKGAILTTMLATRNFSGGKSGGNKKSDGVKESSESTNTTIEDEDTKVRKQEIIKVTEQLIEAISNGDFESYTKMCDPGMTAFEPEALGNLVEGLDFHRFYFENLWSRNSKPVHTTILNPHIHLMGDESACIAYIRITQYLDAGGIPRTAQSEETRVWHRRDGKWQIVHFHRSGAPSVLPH

Row | ΔTm | Structure (SMILES)
4 | -0.8 °C | O=C1Nc2ccc(I)cc2/C1=C\c1cc(Br)c(O)c(Br)c1
5 | 0.6 °C | O=C1Cc2c([nH]c3ccc([N+](=O)[O-])cc23)-c2ccccc2N1
6 | 2.6 °C | Cn1cc(C2=C(c3cn(CCCN)c4ccccc34)C(=O)NC2=O)c2ccccc21

The molecules below were run against T1, Calcium/calmodulin-dependent protein kinase type IV (Homo sapiens) (UniProt Q16566).
T1 sequence (whole entry): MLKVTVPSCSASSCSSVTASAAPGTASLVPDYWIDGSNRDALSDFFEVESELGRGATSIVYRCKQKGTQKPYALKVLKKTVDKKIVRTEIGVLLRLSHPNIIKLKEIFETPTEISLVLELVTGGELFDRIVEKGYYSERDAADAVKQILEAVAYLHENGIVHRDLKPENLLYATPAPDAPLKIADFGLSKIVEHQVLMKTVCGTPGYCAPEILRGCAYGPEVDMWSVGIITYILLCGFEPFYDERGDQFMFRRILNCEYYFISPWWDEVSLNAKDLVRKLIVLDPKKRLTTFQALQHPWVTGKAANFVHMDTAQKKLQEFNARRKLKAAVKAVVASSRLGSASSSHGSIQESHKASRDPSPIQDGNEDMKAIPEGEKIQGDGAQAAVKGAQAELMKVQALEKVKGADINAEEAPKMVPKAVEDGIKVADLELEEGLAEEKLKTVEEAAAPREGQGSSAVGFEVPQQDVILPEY

Row | ΔTm | Structure (SMILES)
7 | 0.2 °C | O=C1Nc2ccc(I)cc2/C1=C\c1cc(Br)c(O)c(Br)c1
8 | 0.8 °C | O=C1Cc2c([nH]c3ccc([N+](=O)[O-])cc23)-c2ccccc2N1
9 | 1.7 °C | Cn1cc(C2=C(c3cn(CCCN)c4ccccc34)C(=O)NC2=O)c2ccccc21

The molecules below were run against Calcium/calmodulin-dependent protein kinase kinase 2 (Homo sapiens, UniProt Q96RR4).

Row | ΔTm | Structure (SMILES)
10 | 3.5 °C | O=C1Nc2ccc(I)cc2/C1=C\c1cc(Br)c(O)c(Br)c1
11 | 2.5 °C | O=C1Cc2c([nH]c3ccc([N+](=O)[O-])cc23)-c2ccccc2N1
12 | -0.1 °C | Cn1cc(C2=C(c3cn(CCCN)c4ccccc34)C(=O)NC2=O)c2ccccc21

These molecules were tested against Serine/threonine-protein kinase Chk2 (Homo sapiens, UniProt O96017).
Serine/threonine-protein kinase Chk2, sequence (O96017 whole entry): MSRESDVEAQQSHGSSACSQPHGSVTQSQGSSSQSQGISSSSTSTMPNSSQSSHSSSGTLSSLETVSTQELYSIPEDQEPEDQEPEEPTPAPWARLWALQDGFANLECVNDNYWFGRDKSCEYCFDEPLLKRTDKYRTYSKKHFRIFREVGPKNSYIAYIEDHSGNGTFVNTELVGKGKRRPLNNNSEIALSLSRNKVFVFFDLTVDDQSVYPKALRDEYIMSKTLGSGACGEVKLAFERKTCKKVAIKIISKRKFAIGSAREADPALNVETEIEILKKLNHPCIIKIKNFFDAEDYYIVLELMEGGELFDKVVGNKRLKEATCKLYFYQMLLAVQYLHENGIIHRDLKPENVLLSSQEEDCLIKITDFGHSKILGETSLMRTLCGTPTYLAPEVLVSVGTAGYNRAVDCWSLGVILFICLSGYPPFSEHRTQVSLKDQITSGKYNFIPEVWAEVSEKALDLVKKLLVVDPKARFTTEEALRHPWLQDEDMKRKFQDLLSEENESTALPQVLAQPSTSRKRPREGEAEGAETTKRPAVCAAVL

Row | ΔTm | Structure (SMILES)
13 | 0.1 °C | O=C1Nc2ccc(I)cc2/C1=C\c1cc(Br)c(O)c(Br)c1
14 | 7.8 °C | O=C1Cc2c([nH]c3ccc([N+](=O)[O-])cc23)-c2ccccc2N1
15 | 5.9 °C | Cn1cc(C2=C(c3cn(CCCN)c4ccccc34)C(=O)NC2=O)c2ccccc21

The molecules below were run against Dual specificity protein kinase CLK1 (Homo sapiens) (UniProt P49759).

Row | ΔTm | Structure (SMILES)
16 | 1.3 °C | O=C1Nc2ccc(I)cc2/C1=C\c1cc(Br)c(O)c(Br)c1
17 | 2.2 °C | O=C1Cc2c([nH]c3ccc([N+](=O)[O-])cc23)-c2ccccc2N1
18 | 8.2 °C | Cn1cc(C2=C(c3cn(CCCN)c4ccccc34)C(=O)NC2=O)c2ccccc21

The molecules below were run against Casein kinase I isoform gamma-2 (Homo sapiens) (UniProt P78368).
Casein kinase I isoform gamma-2 (Homo sapiens), sequence (P78368 whole entry, looked up, canonical isoform): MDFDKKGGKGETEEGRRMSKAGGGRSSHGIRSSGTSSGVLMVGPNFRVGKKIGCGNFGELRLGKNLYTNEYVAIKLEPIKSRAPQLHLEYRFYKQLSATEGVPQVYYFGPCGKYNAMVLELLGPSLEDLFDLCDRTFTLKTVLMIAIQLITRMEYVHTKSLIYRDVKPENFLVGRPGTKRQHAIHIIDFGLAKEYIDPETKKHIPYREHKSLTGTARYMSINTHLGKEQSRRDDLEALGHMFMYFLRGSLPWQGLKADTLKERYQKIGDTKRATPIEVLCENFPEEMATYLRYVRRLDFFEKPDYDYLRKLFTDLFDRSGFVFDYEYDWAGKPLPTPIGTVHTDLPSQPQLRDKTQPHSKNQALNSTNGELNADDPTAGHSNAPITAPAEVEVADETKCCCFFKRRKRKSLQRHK

Row | ΔTm | Structure (SMILES)
19 | 1.1 °C | O=C1Nc2ccc(I)cc2/C1=C\c1cc(Br)c(O)c(Br)c1
20 | 0.8 °C | O=C1Cc2c([nH]c3ccc([N+](=O)[O-])cc23)-c2ccccc2N1
21 | 0.3 °C | Cn1cc(C2=C(c3cn(CCCN)c4ccccc34)C(=O)NC2=O)c2ccccc21

These molecules were tested against Casein kinase I isoform gamma-3 (Homo sapiens) (UniProt Q9Y6M4).
Casein kinase I isoform gamma-3 (Homo sapiens), sequence (Q9Y6M4 whole entry, looked up, canonical isoform): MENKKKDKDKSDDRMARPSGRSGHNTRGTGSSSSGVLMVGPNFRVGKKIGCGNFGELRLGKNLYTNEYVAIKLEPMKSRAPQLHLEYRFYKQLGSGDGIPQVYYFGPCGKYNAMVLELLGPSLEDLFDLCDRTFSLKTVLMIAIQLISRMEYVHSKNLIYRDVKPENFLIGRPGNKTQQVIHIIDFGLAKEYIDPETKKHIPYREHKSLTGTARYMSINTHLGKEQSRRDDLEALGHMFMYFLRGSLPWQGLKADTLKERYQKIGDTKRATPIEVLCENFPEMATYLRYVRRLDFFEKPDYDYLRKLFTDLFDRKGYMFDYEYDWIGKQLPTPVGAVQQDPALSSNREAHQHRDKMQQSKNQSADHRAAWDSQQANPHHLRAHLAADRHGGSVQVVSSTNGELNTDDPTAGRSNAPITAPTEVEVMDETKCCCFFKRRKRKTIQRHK

Row | ΔTm | Structure (SMILES)
22 | 0 °C | O=C1Nc2ccc(I)cc2/C1=C\c1cc(Br)c(O)c(Br)c1
23 | 0.9 °C | O=C1Cc2c([nH]c3ccc([N+](=O)[O-])cc23)-c2ccccc2N1
24 | 0.4 °C | Cn1cc(C2=C(c3cn(CCCN)c4ccccc34)C(=O)NC2=O)c2ccccc21

The molecules below were run against Tyrosine-protein kinase JAK1 (Homo sapiens) (UniProt P23458).

Row | ΔTm | Structure (SMILES)
25 | 4.5 °C | O=C1Nc2ccc(I)cc2/C1=C\c1cc(Br)c(O)c(Br)c1
26 | 1 °C | O=C1Cc2c([nH]c3ccc([N+](=O)[O-])cc23)-c2ccccc2N1
27 | -0.5 °C | Cn1cc(C2=C(c3cn(CCCN)c4ccccc34)C(=O)NC2=O)c2ccccc21

The molecules below were run against T2, Dual specificity mitogen-activated protein kinase kinase 6 (Homo sapiens) (UniProt P52564).
T2 sequence (whole entry): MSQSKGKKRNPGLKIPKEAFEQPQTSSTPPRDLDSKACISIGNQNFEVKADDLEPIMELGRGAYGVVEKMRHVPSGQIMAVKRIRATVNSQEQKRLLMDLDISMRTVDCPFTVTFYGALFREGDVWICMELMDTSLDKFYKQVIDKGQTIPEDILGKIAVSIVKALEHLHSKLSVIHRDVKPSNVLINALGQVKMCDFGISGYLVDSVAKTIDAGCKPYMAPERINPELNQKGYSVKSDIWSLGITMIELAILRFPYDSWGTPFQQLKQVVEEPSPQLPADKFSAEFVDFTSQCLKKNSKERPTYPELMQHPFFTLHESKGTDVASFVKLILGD

Row | ΔTm | Structure (SMILES)
28 | 1.6 °C | O=C1Nc2ccc(I)cc2/C1=C\c1cc(Br)c(O)c(Br)c1
29 | 1.2 °C | O=C1Cc2c([nH]c3ccc([N+](=O)[O-])cc23)-c2ccccc2N1
30 | 0.8 °C | Cn1cc(C2=C(c3cn(CCCN)c4ccccc34)C(=O)NC2=O)c2ccccc21

Each molecule was assayed against Mitogen-activated protein kinase 3 (Homo sapiens, UniProt P27361).

Row | ΔTm | Structure (SMILES)
31 | 0.5 °C | O=C1Nc2ccc(I)cc2/C1=C\c1cc(Br)c(O)c(Br)c1
32 | 1.1 °C | O=C1Cc2c([nH]c3ccc([N+](=O)[O-])cc23)-c2ccccc2N1
33 | -0.3 °C | Cn1cc(C2=C(c3cn(CCCN)c4ccccc34)C(=O)NC2=O)c2ccccc21

These molecules were tested against Serine/threonine-protein kinase Nek6 (Homo sapiens) (UniProt Q9HC98).

Row | ΔTm | Structure (SMILES)
34 | 0 °C | O=C1Nc2ccc(I)cc2/C1=C\c1cc(Br)c(O)c(Br)c1
35 | 0.8 °C | O=C1Cc2c([nH]c3ccc([N+](=O)[O-])cc23)-c2ccccc2N1
36 | -0.4 °C | Cn1cc(C2=C(c3cn(CCCN)c4ccccc34)C(=O)NC2=O)c2ccccc21

The molecules below were run against T3, 3-phosphoinositide-dependent protein kinase 1 (Homo sapiens) (UniProt O15530).
T3 sequence (whole entry): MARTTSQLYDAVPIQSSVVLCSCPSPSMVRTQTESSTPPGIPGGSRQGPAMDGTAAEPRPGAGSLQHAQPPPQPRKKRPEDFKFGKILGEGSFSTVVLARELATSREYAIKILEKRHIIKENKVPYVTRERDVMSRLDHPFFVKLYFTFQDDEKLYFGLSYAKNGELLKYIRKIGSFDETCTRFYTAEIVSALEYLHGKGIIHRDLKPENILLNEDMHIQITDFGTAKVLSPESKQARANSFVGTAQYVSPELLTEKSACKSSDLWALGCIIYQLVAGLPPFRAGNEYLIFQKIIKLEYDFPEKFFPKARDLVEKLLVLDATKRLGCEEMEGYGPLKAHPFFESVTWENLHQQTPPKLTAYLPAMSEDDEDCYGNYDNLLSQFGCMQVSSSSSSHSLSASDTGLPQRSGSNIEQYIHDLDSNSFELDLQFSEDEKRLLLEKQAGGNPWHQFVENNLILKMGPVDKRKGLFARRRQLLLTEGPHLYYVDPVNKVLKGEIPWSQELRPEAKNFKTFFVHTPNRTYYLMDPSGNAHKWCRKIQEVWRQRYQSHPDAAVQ

Row | ΔTm | Structure (SMILES)
37 | -1 °C | O=C1Nc2ccc(I)cc2/C1=C\c1cc(Br)c(O)c(Br)c1
38 | 0 °C | O=C1Cc2c([nH]c3ccc([N+](=O)[O-])cc23)-c2ccccc2N1
39 | -0.1 °C | Cn1cc(C2=C(c3cn(CCCN)c4ccccc34)C(=O)NC2=O)c2ccccc21

Each molecule was assayed against cAMP-dependent protein kinase catalytic subunit alpha (Homo sapiens) (UniProt P17612).

Row | ΔTm | Structure (SMILES)
40 | 1 °C | O=C1Nc2ccc(I)cc2/C1=C\c1cc(Br)c(O)c(Br)c1
41 | 1.6 °C | O=C1Cc2c([nH]c3ccc([N+](=O)[O-])cc23)-c2ccccc2N1
42 | 2.6 °C | Cn1cc(C2=C(c3cn(CCCN)c4ccccc34)C(=O)NC2=O)c2ccccc21

Each molecule was assayed against Serine/threonine-protein kinase RIO2 (Homo sapiens) (UniProt Q9BVS4).
Serine/threonine-protein kinase RIO2 (Homo sapiens), sequence (Q9BVS4 whole entry, looked up): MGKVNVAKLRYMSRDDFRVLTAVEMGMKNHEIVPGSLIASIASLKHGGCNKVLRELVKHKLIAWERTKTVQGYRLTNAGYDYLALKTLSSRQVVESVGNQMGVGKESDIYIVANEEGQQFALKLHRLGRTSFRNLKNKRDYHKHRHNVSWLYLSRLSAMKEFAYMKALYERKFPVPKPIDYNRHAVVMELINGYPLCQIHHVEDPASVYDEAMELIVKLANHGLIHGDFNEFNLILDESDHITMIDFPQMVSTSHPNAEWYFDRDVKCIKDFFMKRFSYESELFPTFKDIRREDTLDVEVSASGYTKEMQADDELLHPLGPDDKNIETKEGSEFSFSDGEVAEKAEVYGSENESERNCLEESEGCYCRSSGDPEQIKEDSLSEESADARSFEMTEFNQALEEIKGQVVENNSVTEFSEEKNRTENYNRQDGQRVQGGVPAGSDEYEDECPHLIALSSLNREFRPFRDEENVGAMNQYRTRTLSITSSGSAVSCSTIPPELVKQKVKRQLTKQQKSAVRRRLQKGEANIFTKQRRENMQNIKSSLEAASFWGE

Row | ΔTm | Structure (SMILES)
43 | -0.4 °C | O=C1Nc2ccc(I)cc2/C1=C\c1cc(Br)c(O)c(Br)c1
44 | 1.3 °C | O=C1Cc2c([nH]c3ccc([N+](=O)[O-])cc23)-c2ccccc2N1
45 | 0.5 °C | Cn1cc(C2=C(c3cn(CCCN)c4ccccc34)C(=O)NC2=O)c2ccccc21

The molecules below were run against Ribosomal protein S6 kinase alpha-3 (Homo sapiens) (UniProt P51812).

Row | ΔTm | Structure (SMILES)
46 | 2.7 °C | O=C1Nc2ccc(I)cc2/C1=C\c1cc(Br)c(O)c(Br)c1
47 | 2.4 °C | O=C1Cc2c([nH]c3ccc([N+](=O)[O-])cc23)-c2ccccc2N1
48 | 8.1 °C | Cn1cc(C2=C(c3cn(CCCN)c4ccccc34)C(=O)NC2=O)c2ccccc21

These molecules were tested against STE20-like serine/threonine-protein kinase (Homo sapiens) (UniProt Q9H2G2).
STE20-like serine/threonine-protein kinase (Homo sapiens), sequence (Q9H2G2 whole entry, looked up): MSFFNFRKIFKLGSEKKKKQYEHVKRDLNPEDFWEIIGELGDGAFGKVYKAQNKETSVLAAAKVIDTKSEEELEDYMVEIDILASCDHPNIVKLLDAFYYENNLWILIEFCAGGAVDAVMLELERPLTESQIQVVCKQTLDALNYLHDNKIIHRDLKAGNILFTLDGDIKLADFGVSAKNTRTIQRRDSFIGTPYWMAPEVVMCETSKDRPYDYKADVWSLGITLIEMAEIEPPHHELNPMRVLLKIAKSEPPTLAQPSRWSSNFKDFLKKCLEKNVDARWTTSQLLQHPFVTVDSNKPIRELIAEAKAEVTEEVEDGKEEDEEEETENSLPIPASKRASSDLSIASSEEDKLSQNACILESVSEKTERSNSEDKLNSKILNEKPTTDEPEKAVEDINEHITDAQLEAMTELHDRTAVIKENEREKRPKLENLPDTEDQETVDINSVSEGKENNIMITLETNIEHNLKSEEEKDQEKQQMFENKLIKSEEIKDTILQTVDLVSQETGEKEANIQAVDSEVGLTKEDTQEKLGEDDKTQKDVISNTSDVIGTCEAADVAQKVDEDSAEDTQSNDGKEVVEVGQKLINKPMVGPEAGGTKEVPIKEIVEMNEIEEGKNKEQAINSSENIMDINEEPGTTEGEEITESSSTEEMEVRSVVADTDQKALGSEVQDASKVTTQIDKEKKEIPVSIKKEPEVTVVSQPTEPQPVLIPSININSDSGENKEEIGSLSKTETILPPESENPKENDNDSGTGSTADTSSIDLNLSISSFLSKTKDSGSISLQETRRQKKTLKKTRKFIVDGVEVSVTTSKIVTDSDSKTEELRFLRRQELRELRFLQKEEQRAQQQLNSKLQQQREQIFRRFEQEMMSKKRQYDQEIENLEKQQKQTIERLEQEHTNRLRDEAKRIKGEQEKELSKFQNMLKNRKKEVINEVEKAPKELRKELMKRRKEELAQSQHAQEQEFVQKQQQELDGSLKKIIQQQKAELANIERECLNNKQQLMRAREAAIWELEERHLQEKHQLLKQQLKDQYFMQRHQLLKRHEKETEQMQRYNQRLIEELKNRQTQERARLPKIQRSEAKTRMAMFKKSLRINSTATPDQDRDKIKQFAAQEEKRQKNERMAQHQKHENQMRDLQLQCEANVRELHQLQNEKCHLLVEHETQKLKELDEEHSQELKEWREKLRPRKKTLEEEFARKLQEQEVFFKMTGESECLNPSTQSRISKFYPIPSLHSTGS

Row | ΔTm | Structure (SMILES)
49 | 2.2 °C | O=C1Nc2ccc(I)cc2/C1=C\c1cc(Br)c(O)c(Br)c1
50 | 2.1 °C | O=C1Cc2c([nH]c3ccc([N+](=O)[O-])cc23)-c2ccccc2N1
51 | 7.6 °C | Cn1cc(C2=C(c3cn(CCCN)c4ccccc34)C(=O)NC2=O)c2ccccc21

These molecules were tested against TRAF2 and NCK-interacting protein kinase (Homo sapiens) (UniProt Q9UKE5).
TRAF2 and NCK-interacting protein kinase (Homo sapiens), sequence (Q9UKE5 whole entry, looked up): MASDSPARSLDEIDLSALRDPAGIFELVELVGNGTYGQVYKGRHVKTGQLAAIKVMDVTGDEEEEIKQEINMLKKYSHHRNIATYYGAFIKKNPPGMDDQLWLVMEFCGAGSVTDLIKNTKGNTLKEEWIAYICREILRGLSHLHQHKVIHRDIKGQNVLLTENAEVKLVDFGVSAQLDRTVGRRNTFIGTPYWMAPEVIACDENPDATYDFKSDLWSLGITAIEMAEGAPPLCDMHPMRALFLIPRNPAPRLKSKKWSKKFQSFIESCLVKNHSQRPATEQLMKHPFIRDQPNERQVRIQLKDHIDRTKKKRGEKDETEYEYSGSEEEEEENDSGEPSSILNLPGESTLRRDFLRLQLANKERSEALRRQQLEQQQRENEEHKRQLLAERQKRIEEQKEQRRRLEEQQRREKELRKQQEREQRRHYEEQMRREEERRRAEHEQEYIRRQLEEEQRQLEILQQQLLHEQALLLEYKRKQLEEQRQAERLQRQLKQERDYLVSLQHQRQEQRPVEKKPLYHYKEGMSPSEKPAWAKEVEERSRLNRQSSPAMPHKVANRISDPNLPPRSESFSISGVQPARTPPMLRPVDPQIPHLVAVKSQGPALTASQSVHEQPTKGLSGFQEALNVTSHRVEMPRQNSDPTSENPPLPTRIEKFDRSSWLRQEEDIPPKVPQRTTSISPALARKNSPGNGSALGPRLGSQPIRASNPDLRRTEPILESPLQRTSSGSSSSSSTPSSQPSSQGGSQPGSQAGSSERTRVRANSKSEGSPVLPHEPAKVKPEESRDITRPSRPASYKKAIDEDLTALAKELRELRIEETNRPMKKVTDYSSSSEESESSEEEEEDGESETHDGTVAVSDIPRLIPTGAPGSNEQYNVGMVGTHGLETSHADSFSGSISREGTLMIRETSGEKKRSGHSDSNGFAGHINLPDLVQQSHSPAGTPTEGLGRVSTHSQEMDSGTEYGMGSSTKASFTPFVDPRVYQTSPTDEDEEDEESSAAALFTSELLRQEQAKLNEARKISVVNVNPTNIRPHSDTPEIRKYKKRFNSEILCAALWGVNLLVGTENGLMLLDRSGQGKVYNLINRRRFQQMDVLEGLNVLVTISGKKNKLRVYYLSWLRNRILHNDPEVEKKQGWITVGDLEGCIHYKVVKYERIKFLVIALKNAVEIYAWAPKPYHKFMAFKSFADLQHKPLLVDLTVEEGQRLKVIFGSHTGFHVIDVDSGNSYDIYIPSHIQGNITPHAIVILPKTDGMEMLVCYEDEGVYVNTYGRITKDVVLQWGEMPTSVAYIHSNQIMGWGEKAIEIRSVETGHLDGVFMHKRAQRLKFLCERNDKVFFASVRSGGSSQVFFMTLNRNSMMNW

Row | ΔTm | Structure (SMILES)
52 | 3.9 °C | O=C1Nc2ccc(I)cc2/C1=C\c1cc(Br)c(O)c(Br)c1
53 | 6.1 °C | O=C1Cc2c([nH]c3ccc([N+](=O)[O-])cc23)-c2ccccc2N1
54 | 0.8 °C | Cn1cc(C2=C(c3cn(CCCN)c4ccccc34)C(=O)NC2=O)c2ccccc21

What follows are molecules tested against T4, Serine/threonine-protein kinase VRK3 (Homo sapiens) (UniProt Q8IV63).
T4 sequence (whole entry): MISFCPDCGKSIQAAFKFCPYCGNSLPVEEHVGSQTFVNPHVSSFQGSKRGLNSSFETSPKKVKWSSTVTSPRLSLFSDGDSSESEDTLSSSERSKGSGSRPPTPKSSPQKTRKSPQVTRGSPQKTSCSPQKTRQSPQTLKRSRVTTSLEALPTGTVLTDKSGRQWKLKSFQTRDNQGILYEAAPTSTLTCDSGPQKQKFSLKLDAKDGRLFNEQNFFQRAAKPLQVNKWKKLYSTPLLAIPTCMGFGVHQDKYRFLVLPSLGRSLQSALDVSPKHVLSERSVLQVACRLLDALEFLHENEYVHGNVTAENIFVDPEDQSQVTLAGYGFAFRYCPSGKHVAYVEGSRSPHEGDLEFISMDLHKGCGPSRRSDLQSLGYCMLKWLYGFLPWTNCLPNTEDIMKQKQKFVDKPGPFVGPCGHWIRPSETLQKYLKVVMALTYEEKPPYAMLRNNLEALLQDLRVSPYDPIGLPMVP

Row | ΔTm | Structure (SMILES)
55 | -1.6 °C | O=C1Nc2ccc(I)cc2/C1=C\c1cc(Br)c(O)c(Br)c1
56 | 0 °C | O=C1Cc2c([nH]c3ccc([N+](=O)[O-])cc23)-c2ccccc2N1
57 | 0.9 °C | Cn1cc(C2=C(c3cn(CCCN)c4ccccc34)C(=O)NC2=O)c2ccccc21

Reference: ChEMBL document CHEMBL1145498, “A systematic interaction map of validated kinase inhibitors with Ser/Thr kinases” (Proc Natl Acad Sci U S A, 2007)
